# Where two headings read alike, the source gives them in different places.
# Columns and labels:
# human topoisomerase I = biological target: T1, human topoisomerase I (Homo sapiens, UniProt P11387); assay: Topoisomerase I-mediated DNA cleavage assay (Test A); format: biochemical; conditions: for Topo I-mediated DNA cleavage (REC, Relative Effective Concentration): concentration relative to camptothecin (CPT = 1) producing the same cleavage on plasmid DNA, human topoisomerase I; for topoisomerase I poisoning activity (in words): qualitative statement
# T1 construct: made in house
# T1 sequence (P11387 1-765): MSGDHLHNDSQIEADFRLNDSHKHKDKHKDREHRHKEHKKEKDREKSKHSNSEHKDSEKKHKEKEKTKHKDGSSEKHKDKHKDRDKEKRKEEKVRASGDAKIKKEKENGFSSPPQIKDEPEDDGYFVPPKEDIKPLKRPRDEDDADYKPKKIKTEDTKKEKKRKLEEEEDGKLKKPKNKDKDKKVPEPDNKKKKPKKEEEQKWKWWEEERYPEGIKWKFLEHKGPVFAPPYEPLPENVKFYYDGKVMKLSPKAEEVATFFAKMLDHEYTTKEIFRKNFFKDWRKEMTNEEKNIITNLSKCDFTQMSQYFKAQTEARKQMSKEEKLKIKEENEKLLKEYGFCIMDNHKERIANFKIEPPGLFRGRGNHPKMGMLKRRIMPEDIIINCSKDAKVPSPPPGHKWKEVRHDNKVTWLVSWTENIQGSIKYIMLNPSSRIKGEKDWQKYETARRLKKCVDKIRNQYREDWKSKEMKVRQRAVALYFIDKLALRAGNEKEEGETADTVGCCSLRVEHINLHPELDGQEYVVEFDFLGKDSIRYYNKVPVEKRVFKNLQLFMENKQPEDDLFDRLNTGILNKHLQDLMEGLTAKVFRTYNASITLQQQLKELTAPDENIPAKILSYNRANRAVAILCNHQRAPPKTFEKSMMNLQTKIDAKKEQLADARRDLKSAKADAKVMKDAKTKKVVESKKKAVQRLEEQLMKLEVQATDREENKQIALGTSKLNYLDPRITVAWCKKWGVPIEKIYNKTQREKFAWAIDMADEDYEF
# Procedure: (§1) Topoisomerase I and Topoisomerase II Cleavage Assay
# (§2) Representative compounds of the invention were evaluated in cleavage assays for the recombinant topoisomerases I and calf thymus topoisomerases I and II. These assays were preformed as described by B. Gatto et al. Cancer Res., 1996, 56, 2795-2800. Human topoisomerase I was isolated as a recombinant fusion protein using a T7 expression system. DNA topoisomerase II was purified from calf thymus gland as reported by Halligan, B. D.; Edwards, K. A.; Liu, L. F. “Purification and characterization of a type II DNA topoisomerase from bovine calf thymus,” J. Biol. Chem. 1985, 260, 2475. Plasmid YEpG was purified by the alkali lysis method followed by phenol deproteination and CsCl/ethidium isopycnic centrifugation as described by Maniatis, T.; Fritsch, E. F.; Sambrook, J. Molecular Cloning, a Laboratory Manual; Cold Spring Harbor Laboratory: Cold Spring Harbor, N.Y. 1982; pp 149-185. The end-labeling of the plasmid was accomplished by digestion with a restriction enzyme followed by end-filling with Klenow polymerase as previously described by Liu, L. F.; Rowe, T. C.; Yang, L.; Tewey, K. M.; Chen, G. L. “Cleavage of DNA by mammalian topoisomerase II,” J. Biol. Chem. 1983, 258, 15365.
# [1] = tested on: calf thymus topoisomerase II; assay: Topoisomerase II-mediated DNA cleavage assay (Test A); format: biochemical; conditions: concentration relative to VM-26 (= 1) producing the same cleavage on plasmid DNA
# Procedure: as §1, §2
# [2] = tested on: camptothecin-resistant variant cell line, CPT-K5; assay: MTT-microtiter plate tetrazolinium cytotoxicity assay (Test B), CPT-K5; format: cell-based, human; conditions: read-out: Cytotoxicity IC50 CPT-K5
# Procedure: (§3) The cytotoxicity was determined using the MTT-microtiter plate tetrazolinium cytotoxicity assay (MTA) (See Chen A. Y. et al. Cancer Res. 1993, 53, 1332; Mosmann, T. J., J. Immunol. Methods 1983, 65, 55; and Carmichael, J. et al. Cancer Res. 1987, 47, 936).
# [3] = tested on: human lymphoblast RPMI 8402; assay: MTT-microtiter plate tetrazolinium cytotoxicity assay (Test B), RPMI 8402; format: cell-based; conditions: read-out: Cytotoxicity IC50 RPMI
# Procedure: as §3
# [4] = Homo sapiens, 96 h, CPT-K5 camptothecin-resistant cells, 4 days of continuous drug exposure
Compound,"Topo I-mediated DNA cleavage (REC, Relative Effective Concentration) (human topoisomerase I)",melting point [°C],"Topo II-mediated DNA cleavage (REC, Relative Effective Concentration) [1]","IC50 [2, 4] [µM]","IC50 ([3]; Homo sapiens, 96 h, RPMI 8402 cells, 4 days of continuous drug exposure) [µM]",topoisomerase I poisoning activity (in words) (human topoisomerase I),"IC50 ([2]; Homo sapiens, CPT-K5, 96 h) [µM]","IC50 ([3]; Homo sapiens, RPMI 8402, 96 h) [µM]","IC50 ([2]; CPT-K5 camptothecin-resistant cells, 4 days of continuous drug exposure) [µM]","IC50 ([3]; RPMI 8402 cells, 4 days of continuous drug exposure) [µM]"
"CC[C@@]1(O)C(=O)OCc2c1cc1n(c2=O)Cc2cc3ccccc3nc2-1 [CPT, camptothecin, reference compound]",1,,>1000,> 10,0.004,,,,,
"COc1cc2ncc3c4cc5c(cc4ccc3c2cc1OC)OCO5 [Compound 6, 2,3-Methylenedioxy-8,9-dimethoxybenzo[i]phenanthridine]",100,> 250,10,,,potent activity,7,7.5,,
"COc1cc2ccc3c4cc(OCc5ccccc5)ccc4ncc3c2cc1OC [Compound 30, 2,3-Dimethoxy-9-benzyloxybenzo[i]phenanthridine]",250,,>1000,,,,7.5,7.5,,
"COc1cc2c[n+](C)c3c4cc5c(cc4ccc3c2cc1OC)OCO5 [Nitidine, reference compound]",1,,1,> 2.6,,,,0.65,,
"COc1cc([C@@H]2c3cc4c(cc3[C@@H](O[C@@H]3O[C@@H]5CO[C@@H](c6cccs6)O[C@H]5[C@H](O)[C@H]3O)[C@H]3COC(=O)[C@H]23)OCO4)cc(OC)c1O [VM-26, teniposide, reference compound]",>1000,,1,,,,,,0.5,0.3

# Further lines, with some results ahead:
"Topo I-mediated DNA cleavage (REC, Relative Effective Concentration) (human topoisomerase I)",melting point [°C],Compound,"Topo II-mediated DNA cleavage (REC, Relative Effective Concentration) [1]","IC50 [2, 4] [µM]","IC50 ([3]; Homo sapiens, 96 h, RPMI 8402 cells, 4 days of continuous drug exposure) [µM]",topoisomerase I poisoning activity (in words) (human topoisomerase I),"IC50 ([2]; Homo sapiens, CPT-K5, 96 h) [µM]","IC50 ([3]; Homo sapiens, RPMI 8402, 96 h) [µM]","IC50 ([2]; CPT-K5 camptothecin-resistant cells, 4 days of continuous drug exposure) [µM]","IC50 ([3]; RPMI 8402 cells, 4 days of continuous drug exposure) [µM]"
100,,"2,3,8,9-Dimethylenedioxybenzo[i]phenanthridine [Compound 29]",>1000,,,,,,,
>1000,267 to 268,"COc1cc2ccc3c4cc(OC)c(OC)cc4ncc3c2cc1OC [Compound 4, 2,3,8,9-Tetramethoxybenzo[i]phenanthridine]",>1000,,,significantly less topoisomerase I poisioning activity,22.9,22.9,,
>1000,255 to 257,"COc1cc2ccc3c4cc(OC)c(OC)cc4nc(C)c3c2cc1OC [Compound 5, 5-Methyl-2,3,8,9-tetramethoxybenzo[i]phenanthridine]",>1000,,,significantly less topoisomerase I poisioning activity,> 27.5,27.5,,
200,> 250,"COc1cc2nc(C)c3c4cc5c(cc4ccc3c2cc1OC)OCO5 [Compound 7, 8,9-Dimethoxy-5-methyl-2,3-methylenedioxybenzo[i]-phenanthridine]",100,,,potent activity,14.4,10.1,,
25,171,"COc1cc2ccc3c4cc5c(cc4ncc3c2cc1OC)OCO5 [Compound 28, 2,3-Dimethoxy-8,9-methylenedioxybenzo[i]phenanthridine]",>1000,,,potent topoisomerase poisioning activity,0.2,0.2,,
50,,"COc1cc2ccc3c4cc(N)ccc4ncc3c2cc1OC [Compound 31, 2,3-Dimethoxy-9-aminobenzo[i]phenanthridine]",>1000,,,,3,3,,
,200 to 202,"COc1ccc2c(c1)ncc1c3cc(OC)c(OC)cc3ccc21 [Example 9, 2,3,8-Trimethoxybenzo[i]phenanthridine]",,,,,,,,
